In general, IC50 refers to the midpoint of a concentration-inhibition curve.

PRMT5/MEP50, sequence (O14744 other isoform, or with tags, fused parts or gaps): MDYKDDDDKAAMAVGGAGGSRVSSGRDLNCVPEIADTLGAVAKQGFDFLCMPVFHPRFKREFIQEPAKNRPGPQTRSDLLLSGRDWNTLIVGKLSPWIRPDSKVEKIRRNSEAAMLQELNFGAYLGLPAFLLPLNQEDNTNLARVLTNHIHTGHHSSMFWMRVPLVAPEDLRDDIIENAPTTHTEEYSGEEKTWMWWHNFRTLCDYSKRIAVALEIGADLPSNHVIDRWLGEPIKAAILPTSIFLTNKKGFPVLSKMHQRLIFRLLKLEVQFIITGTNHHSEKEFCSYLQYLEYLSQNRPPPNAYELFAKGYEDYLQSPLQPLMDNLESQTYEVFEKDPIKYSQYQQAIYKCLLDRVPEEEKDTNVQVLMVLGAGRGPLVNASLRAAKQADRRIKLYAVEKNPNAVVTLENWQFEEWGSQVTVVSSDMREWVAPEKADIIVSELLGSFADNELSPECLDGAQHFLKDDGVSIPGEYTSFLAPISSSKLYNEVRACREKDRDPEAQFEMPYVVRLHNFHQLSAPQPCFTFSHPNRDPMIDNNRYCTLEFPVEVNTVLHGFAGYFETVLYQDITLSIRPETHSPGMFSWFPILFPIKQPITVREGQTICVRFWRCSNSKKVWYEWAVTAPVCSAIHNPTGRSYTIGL
PRMT5/MEP50, sequence (Q9BQA1 other isoform, or with tags, fused parts or gaps partner): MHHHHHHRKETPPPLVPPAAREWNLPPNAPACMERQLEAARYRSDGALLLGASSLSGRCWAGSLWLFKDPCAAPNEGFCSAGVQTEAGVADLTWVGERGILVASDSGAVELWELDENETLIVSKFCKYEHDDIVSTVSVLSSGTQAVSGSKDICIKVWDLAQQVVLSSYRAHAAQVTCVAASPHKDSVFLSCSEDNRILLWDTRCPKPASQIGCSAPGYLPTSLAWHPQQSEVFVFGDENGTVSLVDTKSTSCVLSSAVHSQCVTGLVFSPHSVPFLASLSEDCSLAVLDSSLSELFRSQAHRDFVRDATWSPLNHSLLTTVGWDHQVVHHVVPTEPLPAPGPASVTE

The experiment has as its target PRMT5/MEP50 (Homo sapiens (Human), UniProt O14744). As to the kind of experiment: PRMT5 Biochemical Assay (PRMT5/MEP50 enzyme assay on peptide substrate, 3H-SAM Flashplate). The following applies: PRMT5/MEP50 biochemical assay; read-out: Biochemical IC50. From the text: S-adenosylmethionine (SAM), S-adenosylhomocysteine (SAH), bicine, KCl, Tween20, dimethylsulfoxide (DMSO), bovine skin gelatin (BSG), and Tris(2-carboxyethyl)phosphine hydrochloride solution (TCEP) were purchased from Sigma-Aldrich at the highest level of purity possible. ^3H-SAM was purchase from American Radiolabeled Chemicals with a specific activity of 80 Ci/mmol. 384-well streptavidin Flashplates were purchased from PerkinElmer.
Peptide representative of human histone H4 residues 1-15 was synthesized with a C-terminal linker-affinity tag motif and a C-terminal amide cap by 21st Century Biochemicals. […] The sequence was Ac-[…][K-Biot]amide (SEQ ID NO.:3).
Full-length human MEP50 (NM_024102) clone was amplified from a human testis cDNA library incorporating a 5′ sequence encoding a 6-histidine tag (MHHHHHH) (SEQ ID NO.:5) fused directly to Arg 2 of MEP50. The amplified genes were subcloned into pENTR/D/TEV (Life Technologies) and subsequently transferred by Gateway™ attL×attR recombination to pDEST8 baculvirus expression vector (Life Technologies).
Recombinant baculovirus and Baculovirus-Infected Insect Cells (BIIC) were generated according to Bac-to-Bac kit instructions (Life Technologies) and Wasilko, 2006, respectively. Protein over-expression was accomplished by infecting exponentially growing Spodoptera frugiperda (SF9) cell culture at 1.2×10^6 cell/ml with a 5000 fold dilution of BIIC stock. Infections were carried out at 27° C. for 72 hours, harvested by centrifugation, and stored at −80° C. for purification.
Flag-PRMT5/6His-MeP50 was eluted with 300 mM Imidazole in the same buffer. […] Reference: Wasilko, D. J. and S. E. Lee: “TIPS: titerless infected-cells preservation and scale-up” Bioprocess J., 5 (2006), pp. 29-32.
General Procedure for PRMT5/MEP50 Enzyme Assays on Peptide Substrates.
The assays were all performed in a buffer consisting of 20 mM Bicine (pH=7.6), 1 mM TCEP, 0.005% BSG, and 0.002% Tween20, prepared on the day of use. Compounds in 100% DMSO (1 ul) were spotted into a polypropylene 384-well V-bottom plates (Greiner) using a Platemate Plus outfitted with a 384-channel head (Thermo Scientific). DMSO (1 ul) was added to Columns 11, 12, 23, 24, rows A-H for the maximum signal control and 1 ul of SAH, a known product and inhibitor of PRMT5/MEP50, was added to columns 11, 12, 23, 24, rows I-P for the minimum signal control. A cocktail (40 ul) containing the PRMT5/MEP50 enzyme and the peptide was added by Multidrop Combi (Thermo-Fisher). The compounds were allowed to incubate with PRMT5/MEP50 for 30 min at 25 degrees Celsius, then a cocktail (10 ul) containing ^3H-SAM was added to initiate the reaction (final volume=51 ul). The final concentrations of the components were as follows: PRMT5/MEP50 was 4 nM, ^3H-SAM was 75 nM, peptide was 40 nM, SAH in the minimum signal control wells was 100 uM, and the DMSO concentration was 1%. The assays were stopped by the addition of non-radioactive SAM (10 ul) to a final concentration of 600 uM, which dilutes the ^3H-SAM to a level where its incorporation into the peptide substrate is no longer detectable. 50 ul of the reaction in the 384-well polypropylene plate was then transferred to a 384-well Flashplate and the biotinylated peptides were allowed to bind to the streptavidin surface for at least 1 hour before being washed three times with 0.1% Tween20 in a Biotek ELx405 plate washer. The plates were then read in a PerkinElmer TopCount plate reader to measure the quantity of ^3H-labeled peptide bound to the Flashplate surface, measured as disintegrations per minute (dpm) or alternatively, referred to as counts per minute (cpm).
[formula] Where dpm=disintegrations per minute, cmpd=signal in assay well, and min and max are the respective minimum and maximum signal controls.
[formula] Where top and bottom are the normally allowed to float, but may be fixed at 100 or 0 respectively in a 3-parameter fit.
For `O=C(NCC(O)CN1CCc2ccccc2C1)c1cccc(NCCN2CCOCC2)c1` (centres unmarked) [Compound 61], the IC50 was 101 to 1000 nM.
Next, `O=C(NCC(O)CN1CCc2ccccc2C1)c1ccnc(NC2CCOCC2)n1` (centres unmarked) [Compound 62]: below 100 nM.
The result for `O=C(NCC(O)CN1CCc2ccccc2C1)c1cc(NC2CCOCC2)ncn1` (centres unmarked) [Compound 63] reads below 100 nM.
The result for `O=C(NCC(O)CN1CCc2ccccc2C1)c1cc(Cl)cc(NC2CCOCC2)c1` (centres unmarked) [Compound 64] reads below 100 nM.
Regarding `O=C(NCC(O)CN1CCc2ccccc2C1)c1ccc(F)c(NC2CCOCC2)c1` (centres unmarked) [Compound 65], the IC50 is below 100 nM.
The result for `O=C(NCC(O)CN1CCc2ccccc2C1)c1ccc(NC2CCOCC2)cc1` (centres unmarked) [Compound 66] reads below 100 nM.
The result for `COc1ccc(C(=O)NCC(O)CN2CCc3ccccc3C2)cc1NC1CCOCC1` (centres unmarked) [Compound 67] reads 101 to 1000 nM; that for `O=C(NCC(O)CN1CCc2ccccc2C1)c1ccc2ncccc2c1` (centres unmarked) [Compound 68], below 100 nM; that for `COCCCNc1cccc(C(=O)NCC(O)CN2CCc3ccccc3C2)c1` (centres unmarked) [Compound 69], 101 to 1000 nM.
Next, `COCCCNc1cccc(C(=O)NCC(O)CN2CCc3ccccc3C2)c1` (centres unmarked) [Compound 70]: 101 to 1000 nM; `CN(CC(O)CN1CCc2ccccc2C1)C(=O)c1cccc(NC2CCOCC2)c1` (centres unmarked) [Compound 71]: 101 to 1000 nM; `COCCNc1cccc(C(=O)NCC(O)CN2CCc3ccccc3C2)c1` (centres unmarked) [Compound 72]: 101 to 1000 nM.
As to `O=C(NCC(O)CN1CCc2ccccc2C1)c1cccc(NC2CCOCC2)n1` (centres unmarked) [Compound 73], the IC50 was below 100 nM.
Next, `O=C(NCC(O)CN1CCc2ccccc2C1)c1ccnc(NC2CCOCC2)c1` (centres unmarked) [Compound 74]: below 100 nM.
Next, `O=C(NCC(O)CN1CCc2ccccc2C1)c1cncc(NC2CCOCC2)n1` (centres unmarked) [Compound 75]: 101 to 1000 nM; `O=C(NCC(O)CN1CCc2ccccc2C1)c1nccc(NC2CCOCC2)n1` (centres unmarked) [Compound 76]: 101 to 1000 nM; `COc1ccc(NC2CCOCC2)cc1C(=O)NCC(O)CN1CCc2ccccc2C1` (centres unmarked) [Compound 77]: below 100 nM.
The result for `O=C(NCC(O)CN1CCc2ccccc2C1)c1cc(F)cc(NC2CCOCC2)c1` (centres unmarked) [Compound 78] reads below 100 nM.
Consider `O=C(NCC(O)CN1CCc2ccccc2C1)c1cccc(NC2CCOCC2)c1F` (centres unmarked) [Compound 79], for which the concentration for half-maximal inhibition (IC50) is below 100 nM.
The result for `O=C(NC[C@H](O)CN1CCc2ccccc2C1)c1cccc(NC2CCOC2)c1` (some centres unmarked) [Compound 80] reads below 100 nM; that for `O=C(NC[C@@H](O)CN1CCc2ccccc2C1)c1cccc(NC2CCOC2)c1` (some centres unmarked) [Compound 81], below 100 nM; that for `O=C(NC[C@H](O)CN1CCc2ccccc2C1)c1cccc(OC2CCOCC2)c1` [Compound 82], below 100 nM.
Next, `O=C(NC[C@@H](O)CN1CCc2ccccc2C1)c1cccc(OC2CCOCC2)c1` [Compound 83]: 101 to 1000 nM; `Cc1ccc2cc(C(=O)NCC(O)CN3CCc4ccccc4C3)ccc2n1` (centres unmarked) [Compound 84, N-(3-(3,4-dihydroisoquinolin-2(1H)-yl)-2-hydroxypropyl)-2-methylquinoline-6-carboxamide]: below 100 nM.
The result for `O=C(NCC(O)CN1CCc2ccccc2C1)c1ccc2nccnc2c1` (centres unmarked) [Compound 85] reads 101 to 1000 nM; that for `CC1=NN(c2ccc(C(=O)NCC(O)CN3CCc4ccccc4C3)cc2)C(=O)C1` (centres unmarked) [Compound 86], 101 to 1000 nM.
With `O=C(NCC(O)CN1CCc2ccccc2C1)c1cccc(NCCCO)c1` (centres unmarked) [Compound 87], the IC50 was in the range of 1000 to 10000 nM.
Next, `O=C(NCC(O)CN1CCc2ccccc2C1)c1ccc2c(c1)OCCN2` (centres unmarked) [Compound 88]: 101 to 1000 nM; `O=C1COc2cc(C(=O)NCC(O)CN3CCc4ccccc4C3)ccc2N1` (centres unmarked) [Compound 89]: 101 to 1000 nM.
The result for `CCN1CCN(Cc2cccc(C(=O)NCC(O)CN3CCc4ccccc4C3)c2)CC1` (centres unmarked) [Compound 90] reads below 100 nM; that for `CS(=O)(=O)N1CCN(Cc2cccc(C(=O)NCC(O)CN3CCc4ccccc4C3)c2)CC1` (centres unmarked) [Compound 91], below 100 nM; that for `O=C(NCC(O)CN1CCc2ccccc2C1)c1cccc(CN2CCN(CC(F)(F)F)CC2)c1` (centres unmarked) [Compound 92], below 100 nM.
Next, `O=C(NCC(O)CN1CCc2ccccc2C1)c1cccc(NC2CCNC2)c1` (centres unmarked) [Compound 93]: 101 to 1000 nM; `O=C(NCC(O)CN1CCc2ccccc2C1)c1cccc(NC2CCNCC2)c1` (centres unmarked) [Compound 94]: below 100 nM.
Regarding `Cc1ccc(NC2CCOCC2)cc1C(=O)NCC(O)CN1CCc2ccccc2C1` (centres unmarked) [Compound 95], the IC50 is 101 to 1000 nM.
For the compound `Cc1ccc(NC2CCOC2)cc1C(=O)NCC(O)CN1CCc2ccccc2C1` (centres unmarked) [Compound 96], the IC50 was below 100 nM.
The result for `Cc1ccc(NC2COC2)cc1C(=O)NCC(O)CN1CCc2ccccc2C1` (centres unmarked) [Compound 97] reads below 100 nM; that for `O=C(NCC(O)CN1CCc2ccccc2C1)c1cccc(NC2CCOCC2O)c1` (centres unmarked) [Compound 98], below 100 nM; that for `O=C(NCC(O)CN1CCc2ccccc2C1)c1cccc(C2CCOCC2)c1` (centres unmarked) [Compound 99], below 100 nM.
`CC(=O)N1CCN(Cc2cccc(C(=O)NCC(O)CN3CCc4ccccc4C3)c2)CC1` (centres unmarked) [Compound 100]: the IC50 was below 100 nM.
Next, `CC(C)N1CCC(Nc2cccc(C(=O)NCC(O)CN3CCc4ccccc4C3)c2)C1` (centres unmarked) [Compound 101]: below 100 nM; `O=C(NCC(O)CN1CCc2ccccc2C1)c1cccc(NC2CCN(CC(F)(F)F)C2)c1` (centres unmarked) [Compound 102]: below 100 nM; `CC(C)N1CCC(Nc2cccc(C(=O)NCC(O)CN3CCc4ccccc4C3)c2)CC1` (centres unmarked) [Compound 103]: below 100 nM.
The result for `O=C(NCC(O)CN1CCc2ccccc2C1)c1ccc(OC2CCNCC2)cc1` (centres unmarked) [Compound 104] reads below 100 nM.
With `CN1CCC(Oc2ccc(C(=O)NCC(O)CN3CCc4ccccc4C3)cc2)CC1` (centres unmarked) [Compound 105], the IC50 is below 100 nM.
Consider `CC(C)N1CCC(Oc2ccc(C(=O)NCC(O)CN3CCc4ccccc4C3)cc2)CC1` (centres unmarked) [Compound 106], for which the IC50 is below 100 nM.
Take `CC(=O)N1CCC(Oc2ccc(C(=O)NCC(O)CN3CCc4ccccc4C3)cc2)CC1` (centres unmarked) [Compound 107]: the 50% inhibitory concentration (IC50) is below 100 nM.
The result for `CS(=O)(=O)N1CCC(Oc2ccc(C(=O)NCC(O)CN3CCc4ccccc4C3)cc2)CC1` (centres unmarked) [Compound 108] reads below 100 nM.
Next, `O=C(NCC(O)CN1CCc2ccccc2C1)c1ccc(OC2CCN(CC(F)(F)F)CC2)cc1` (centres unmarked) [Compound 109]: below 100 nM.
For the compound `O=C(NCC(O)CN1CCc2ccccc2C1)c1ccc(-n2cncn2)cc1` (centres unmarked) [Compound 110], the IC50 was below 100 nM.
The result for `CN(C[C@H](O)CN1CCc2ccccc2C1)C(=O)c1cccc(NC2CCOCC2)c1` [Compound 111] reads below 100 nM; that for `O=C(NCC(O)CN1CCc2ccccc2C1)c1cn[nH]c1-c1ccccc1` (centres unmarked) [Compound 112], 101 to 1000 nM; that for `O=C(NCC(O)CN1CCc2ccccc2C1)c1cccc(CN2CCN(CCO)CC2)c1` (centres unmarked) [Compound 113], below 100 nM.
Next, `COCCN1CCN(Cc2cccc(C(=O)NCC(O)CN3CCc4ccccc4C3)c2)CC1` (centres unmarked) [Compound 114]: below 100 nM; `CN1CCN(Cc2cccc(C(=O)NCC(O)CN3CCc4ccccc4C3)c2)C(CO)C1` (centres unmarked) [Compound 115]: below 100 nM; `NC(=O)CNCc1cccc(C(=O)NCC(O)CN2CCc3ccccc3C2)c1` (centres unmarked) [Compound 116]: 101 to 1000 nM.
